These results are taken from US6469174B1, “Substituted pyrrolobenzimidazoles for treating inflammatory diseases” (Ortho-McNeil Pharmaceutical, Inc., priority 1998, dated 2002).

Read-outs that look alike come from different tables or passages of the source.

Assay [1] has as its target p38 (Homo sapiens, UniProt Q16539). As to the kind of experiment: In vitro enzyme assay: inhibition of p38 activity. The format is biochemical.
Method: Compounds of the invention were measured for their ability to inhibit the activity of p38 by the following in vitro assay.
A solution (38 μL) of purified recombinant p38 (where the amount of enzyme was determined empirically considering the linear range of the assay and the acceptable signal to noise ratio; 6×His-p38 expressed in E. coli), myelin basic protein substrate (also determined empirically), and a buffer of pH 7.5 (Hepes:25 mM, MgCl2:10 mM, MnCl2:10 mM) were added to 92 wells of a 96-well round bottom polypropylene plate. The remaining wells were used for control (“CTRL”) and background (“BKG”).
The CTRL was prepared with the enzyme, substrate buffer and 2% DMSO, and the BKG was prepared with substrate buffer and 2% DMSO. […]
The contents of each well were transferred to the wells of a 96-well filterplate (Millipore, MultiScreen-DP) and the filterplate was placed on a vacuum manifold, fitted with a waste collection tray. […] MicroScint-20 scintillant was added, the plates were sealed using Topseal-S sheets and counted in a Packard TopCount scintillation counter using a ^33P liquid program with color quench correction, where the output is in color quench-corrected cpm.
The % inhibition of the test compounds was calculated by the following formula: % inhibition=[1−(sample −BKG)/(CTRL−BKG)]×100.
For assay [2], the system named is TNF-α. Nature of the assay: In vivo LPS-induced TNF-α production, oral dosing. Conditions: mouse, LPS 1 mg/kg i.p. How it is done:
Mice (BALB/cJ females, Jackson Laboratories) or rats (Lewis males, Charles River) were fasted for 30 minutes prior to oral dosing with 5-10 mL/kg of test compound at 5-50 mg/kg. Thirty minutes after dosing, the animals were injected intraperitoneally with LPS at 1 mg/kg and returned to their cages for 1 hour. Animals were anesthetized by CO2, exsanguinated by cardiac puncture and whole blood collected (0.1-0.7 mL). The blood was allowed to clot and serum was transferred to a centrifuge tube. This sample was centrifuged, serum was collected, aliquoted and frozen at −80° C. Samples were tested by commercial ELISA's for TNF-α (Endogen for mouse TNF-α and Biosource for rat TNF-α).

The test system of assay [3] is TNF-α. Nature of the assay: In vitro whole cell assay: LPS-stimulated TNF-α production in PBMC (ELISA). The format is cell-based. The note with it: LPS-stimulated human PBMC. The protocol:
In addition to the enzyme assay, many of the compounds of the invention were tested in an in vitro whole cell assay using peripheral blood mononuclear cells (“PBMC”) which were obtained from human blood as follows. Freshly obtained venous blood was anticoagulated with heparin, diluted with an equal volume of phosphate buffered saline (“PBS”) and placed in a sterile tube or other container. Aliquots (30 mL) of this mixture were transferred to centrifuge tubes which were underlaid with Ficoll-Hypaque (15 mL). The prepared tubes were centrifuged at 400×g without braking for 30 minutes at room temperature. Approximately ½ to ⅔ of the platelet layer above the mononuclear cell band was removed with a pipet. The majority of the mononuclear cell layer was carefully removed using a pipet and these PBMC's were diluted with PBS and spun at 600×g for 15 minutes. The resulting PBMC's were washed with another portion of PBS and spun at 400×g for 10 minutes at room temperature. The recovered pellets were diluted in low endotoxin RPMI/1% FCS culture medium and gave a cell concentration of 0.5-2.0×10^6 PBMC/ mL. A small volume of the suspension was removed for counting on a hemocytometer and the remaining preparation was centrifuged at 200×g for 15 minutes at room temperature. The recovered pelleted PBMC's were resuspended in RPMI/1% FCS to a concentration of 1.67×10^6/mL.
To run the assay, the PBMC suspension (180 μL) was transferred to duplicate wells of a 96-well flat-bottom microtiter plate and incubated for 1 hour at 37° C. A solution of test compound (10 μL: prepared at 20×the desired final concentration) was added to each well and the plate was incubated for 1 hour at 37° C. A solution (10 μL) of LPS in RPMI/1% FCS (200 ng/mL) was added and the wells were incubated overnight at 37° C. The supernatant (100 μL) was removed from each well and diluted with RPMI/1% FCS (400 μL). The samples were analyzed for TNF-α using a commercial ELISA kit (Genzyme).
Certain compounds of the invention are listed in Tables A and B. The compounds were tested for their ability to inhibit TNF-α in vitro. The data are listed as an IC50 or as the % inhibition at a given concentration.
(An ELISA detects its analyte on a solid surface through an enzyme-linked reagent.)

Where [4] appears, read: Table B, read-out: IC50 (TNF-α in vitro).

Chain of p38 (Q16539 whole entry): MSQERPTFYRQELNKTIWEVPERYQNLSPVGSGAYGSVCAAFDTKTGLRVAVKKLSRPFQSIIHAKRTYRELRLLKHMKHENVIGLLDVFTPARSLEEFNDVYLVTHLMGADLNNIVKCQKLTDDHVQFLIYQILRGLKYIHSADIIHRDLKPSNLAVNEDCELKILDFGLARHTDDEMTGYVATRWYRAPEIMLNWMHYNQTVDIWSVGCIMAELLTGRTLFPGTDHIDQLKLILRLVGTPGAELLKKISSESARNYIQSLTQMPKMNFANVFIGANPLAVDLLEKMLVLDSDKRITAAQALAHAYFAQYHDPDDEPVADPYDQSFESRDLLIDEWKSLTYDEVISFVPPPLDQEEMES

`Fc1ccc(-c2[nH]c3ccc4[nH]c(Cc5ccccc5)nc4c3c2-c2ccncc2)cc1` [Compound 1, 1,6-Dihydro-7-(4-fluorophenyl)-8-(4-pyridyl)-2-phenylmethyl-pyrrolo [3,2-e] benzimidazole] registered an inhibition at 20 µM in assay [1] of 44%. Further, the “inhibition of TNF-α” value is reported as 74% in assay [2] (10 mg/kg) and 91% in assay [2] (25 mg/kg). The IC50 – broadly, the midpoint of a concentration-inhibition curve – in assay [3] (Table A, read-out: TNF-α IC50) was found to be 7 nM.

Consider `CCCCc1nc2ccc3[nH]c(-c4ccc(F)cc4)c(-c4ccncc4)c3c2[nH]1` [Compound 4, 1,6-dihydro-7-(4-fluorophenyl)-8-(4-pyridyl)-2-butyl-pyrrolo[3,2-e]benzimidazole], for which the IC50 in assay [3] (Table A, read-out: TNF-α IC50) worked out at 45 nM. On to `Fc1ccc(-c2c(-c3ccncc3)[nH]c3ccc4c(ncn4CCCc4ccccc4)c23)cc1` [Compound 11, 3,6-dihydro-8-(4-fluorophenyl)-3-(3-phenylpropyl)-7-(4-pyridyl)-pyrrolo[3,2-e]benzimidazole], for which, in assay [3] (@ 400 nM, Table B, read-out: % inhibition of TNF-α at a given concentration), the inhibition at 0.4 µM is 0%.

In the case of `Fc1ccc(-c2c(-c3ccncc3)[nH]c3ccc4nc[nH]c4c23)cc1` [Compound 9, 1,6-dihydro-7-(4-pyridyl)-8-(4-fluorophenyl)-pyrrolo[3,2-e]benzimidazole], the IC50 in assay [3] (setting [4]) was 15 nM.

In the case of `Fc1ccc(-c2c(-c3ccncc3)[nH]c3ccc4nc(Cc5ccccc5)[nH]c4c23)cc1` [Compound 10, 1,6-dihydro-7-(4-pyridyl)-8-(4-fluorophenyl)-2-phenylmethyl-pyrrolo[3,2-e]benzimidazole], in assay [3] (setting [4]), the IC50 was greater than 400 nM. Consider `Fc1ccc(-c2[nH]c3ccc4nc(-c5ccccc5)[nH]c4c3c2-c2ccncc2)cc1` [Compound 2, 1,6-dihydro-7-(4-fluorophenyl)-8-(4-pyridyl)-2-phenyl-pyrrolo[3,2-e]benzimidazole], for which the concentration for half-maximal inhibition (IC50) in assay [3] (Table A, read-out: TNF-α IC50) was found to be 20 nM. For the molecule `Fc1ccc(-c2[nH]c3ccc4nc(CCc5ccccc5)[nH]c4c3c2-c2ccncc2)cc1` [Compound 7, 1,6-dihydro-7-(4-fluorophenyl)-8-(4-pyridyl)-2-(2-phenylethyl)-pyrrolo[3,2-e]benzimidazole], in assay [3] (Table A, read-out: TNF-α IC50), the IC50 amounted to 50 nM.
